Assay results reported in patent US9427415B2, “Methods and compositions for modifying sensorial perception” (The Procter & Gamble Company, priority 2014, dated 2016).
Like-named read-outs stand apart in the source and are kept apart here.

Columns and labels:
[1] = biological target: T1, human TRPV1 (Homo sapiens, UniProt Q8NER1, M315I/T336M); test: Intracellular calcium (Fluo-4, FLIPR) activation of TRPV1 cells by GRAS compounds; format: cell-based; conditions: for activation at 1000 µM / activation at 100 µM: read-out: V1 activation, % of agonist value; for TRPV1 activation selectivity, in words: statement in description, see Table 1(i);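 on all read-outs here: TRPV1-expressing cells, FLIPR fluorescence at 488/514 nm with baseline subtracted, sampled every 2 s for 10 min after adding compound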
T1 construct: expressed in transfected cells; pcDNA3 control cells
T1 sequence (Q8NER1 whole entry M315I/T336M): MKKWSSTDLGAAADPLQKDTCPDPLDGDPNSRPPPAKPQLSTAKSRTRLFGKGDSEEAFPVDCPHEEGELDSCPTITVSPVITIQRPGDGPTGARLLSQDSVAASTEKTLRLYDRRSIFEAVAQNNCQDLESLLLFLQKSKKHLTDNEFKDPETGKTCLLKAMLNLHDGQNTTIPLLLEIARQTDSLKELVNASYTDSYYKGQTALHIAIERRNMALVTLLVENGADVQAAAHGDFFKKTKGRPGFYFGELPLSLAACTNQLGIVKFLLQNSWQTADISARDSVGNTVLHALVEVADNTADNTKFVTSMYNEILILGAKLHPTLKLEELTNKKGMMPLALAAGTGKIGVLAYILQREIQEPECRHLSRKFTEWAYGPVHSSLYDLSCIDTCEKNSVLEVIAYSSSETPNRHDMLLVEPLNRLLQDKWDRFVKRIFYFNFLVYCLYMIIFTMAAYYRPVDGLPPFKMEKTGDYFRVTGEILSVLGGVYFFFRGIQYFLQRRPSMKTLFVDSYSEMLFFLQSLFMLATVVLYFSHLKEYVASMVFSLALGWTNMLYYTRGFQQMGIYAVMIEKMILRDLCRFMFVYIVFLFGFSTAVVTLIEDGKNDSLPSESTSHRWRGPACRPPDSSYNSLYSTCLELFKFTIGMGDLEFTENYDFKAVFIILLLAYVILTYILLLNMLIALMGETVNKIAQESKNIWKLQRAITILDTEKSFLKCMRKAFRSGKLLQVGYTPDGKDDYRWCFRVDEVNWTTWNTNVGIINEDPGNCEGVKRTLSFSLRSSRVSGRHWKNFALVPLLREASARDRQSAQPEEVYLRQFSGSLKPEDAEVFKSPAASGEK

[2] = test system: TRPA1V1; test: Intracellular calcium (Fluo-4, FLIPR) activation of TRPA1V1 cells (co-expressing TRPA1 and TRPV1) by GRAS compounds; format: cell-based, human;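 further: HEK293 cells co-expressing TRPA1 and TRPV1, fluorescence read at 488/514 nm after baseline subtraction, recorded every 2 s over 10 min, ionomycin 10 µM and buffer as controls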
[3] = biological target: T2, human TRPA1 (Homo sapiens, UniProt O75762, K186N/R3C/R58T); test: Intracellular calcium (Fluo-4, FLIPR) activation of TRPA1 cells by GRAS compounds; format: cell-based; conditions: for activation at 1000 µM / activation at 100 µM: read-out: A1 activation, % of agonist value;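 on all read-outs here: TRPA1-expressing cells, fluorescence read on a FLIPR Tetra (ex 488 nm, em 514 nm) every 2 s for 10 min after compound addition, baseline subtracted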
T2 construct: expressed in transfected cells; pcDNA3 control cells
T2 sequence (O75762 whole entry R3C/R58T/K186N): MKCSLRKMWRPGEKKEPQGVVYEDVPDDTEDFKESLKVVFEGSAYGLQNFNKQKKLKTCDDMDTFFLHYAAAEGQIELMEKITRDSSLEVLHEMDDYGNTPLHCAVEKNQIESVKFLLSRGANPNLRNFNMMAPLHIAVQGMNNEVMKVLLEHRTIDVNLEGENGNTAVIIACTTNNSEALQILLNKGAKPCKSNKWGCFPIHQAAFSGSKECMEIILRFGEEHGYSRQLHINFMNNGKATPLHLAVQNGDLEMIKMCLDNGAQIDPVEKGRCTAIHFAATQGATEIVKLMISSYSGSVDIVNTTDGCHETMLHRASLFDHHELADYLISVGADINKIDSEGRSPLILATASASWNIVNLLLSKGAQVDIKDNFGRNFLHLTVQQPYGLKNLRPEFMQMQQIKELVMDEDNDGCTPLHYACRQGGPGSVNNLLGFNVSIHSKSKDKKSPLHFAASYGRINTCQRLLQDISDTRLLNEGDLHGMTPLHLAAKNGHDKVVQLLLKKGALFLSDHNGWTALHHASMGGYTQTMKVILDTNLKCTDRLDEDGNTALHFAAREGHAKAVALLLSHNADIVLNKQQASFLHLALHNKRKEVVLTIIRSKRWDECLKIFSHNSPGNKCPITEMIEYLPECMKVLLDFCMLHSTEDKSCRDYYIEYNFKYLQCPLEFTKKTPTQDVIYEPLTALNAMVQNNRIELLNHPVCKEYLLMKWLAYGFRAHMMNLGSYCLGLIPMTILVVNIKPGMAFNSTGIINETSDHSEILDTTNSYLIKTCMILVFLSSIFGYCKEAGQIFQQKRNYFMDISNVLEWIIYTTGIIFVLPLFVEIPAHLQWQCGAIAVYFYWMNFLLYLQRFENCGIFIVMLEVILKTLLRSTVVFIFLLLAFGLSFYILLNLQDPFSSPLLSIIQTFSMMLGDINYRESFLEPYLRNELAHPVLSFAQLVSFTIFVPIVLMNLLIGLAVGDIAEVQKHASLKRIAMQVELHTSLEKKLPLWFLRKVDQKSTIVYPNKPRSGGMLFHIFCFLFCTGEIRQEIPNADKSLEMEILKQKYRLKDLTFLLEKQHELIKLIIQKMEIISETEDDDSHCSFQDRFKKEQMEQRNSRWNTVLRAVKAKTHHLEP

[4] = Table 1(a), 1 mM, relative to capsaicin 350 nM, average of three plates
[5] = Table 1(a), 1 mM, relative to AITC 30 μM, average of three plates
[6] = Table 1(b), 1 mM, relative to capsaicin 350 nM
[7] = Table 1(b), 1 mM, relative to AITC 30 μM
[8] = Table 1(i), 100 μM (*), relative to capsaicin 350 nM, […]
[9] = Table 1(i), 100 μM (*), relative to AITC 30 μM or capsaicin 350 nM depending on compound, […]
[10] = Table 1(i), 100 μM (*), relative to AITC 30 μM, […]
[11] = Table 1(e), 100 μM (*), relative to AITC 30 μM
[12] = Table 1(d), 100 μM (*), relative to AITC 30 μM
[13] = Table 1(b), 100 μM (*), relative to AITC 30 μM
[14] = Table 1(c), 1 mM, relative to AITC 30 μM
[15] = Table 1(f), 1 mM, relative to capsaicin 350 nM
[16] = Table 1(h), 1 mM, relative to capsaicin 350 nM

Compound: CCCCC/C=C\C/C=C\CCCCCCCC(=O)O [Linoleic acid]
- activation at 1000 µM [1, 4]: 24.9%
- A1V1 activation, % of agonist value [2, 5]: 170.4%
- activation at 1000 µM [3, 5]: 170%

Compound: CC(O)CCc1ccccc1 (centres unmarked) [4-Phenyl-2-butanol]
- activation at 1000 µM [1, 6]: 37.9%
- A1V1 activation, % of agonist value [2, 7]: 81.29%
- activation at 1000 µM [3, 7]: 58.8%

Compound: CC(CC=O)CC(C)(C)C (centres unmarked) [3,5,5-Trimethylhexanal]
- activation at 1000 µM [1, 6]: 217%
- A1V1 activation, % of agonist value [2, 7]: 114.7%
- activation at 1000 µM [3, 7]: 133%

Compound: CC1=NC(C)OC1C (centres unmarked) [2,4,5-Trimethyl-3-oxazoline]
- activation at 100 µM [1, 8]: 101%
- TRPV1 activation selectivity, in words [1]: TRPV1 activators which do not modulate TRPA1 or TRPA1V1
- A1V1 activation, % of agonist value [2, 9]: 4.1%
- activation at 100 µM [3, 10]: 2.1%

Compound: CC(C)C(C=O)c1ccccc1 (centres unmarked) [3-Methyl-2-Phenylbutyraldehyde]
- activation at 1000 µM [1, 4]: 75.8%
- A1V1 activation, % of agonist value [2, 5]: 93.08%
- activation at 1000 µM [3, 5]: 90.6%

Compound: CC/C=C\CCOC(=O)C(C)=O [Pyruvic caid cis-3-hexen-1-yl ester]
- V1 activation, % of agonist value [1, 4]: 21%
- A1V1 activation, % of agonist value [2, 5]: 40%
- A1 activation, % of agonist value [3, 5]: 45%

Compound: COc1cc(/C=C/C(=O)CC(=O)/C=C/c2ccc(O)c(OC)c2)ccc1O [Curcumin]
- activation at 1000 µM [1, 6]: 43.2%
- A1V1 activation, % of agonist value [2, 7]: 171.6%
- A1V1 activation, % of agonist value [2, 11]: 150.3%
- activation at 1000 µM [3, 7]: 95.3%
- activation at 100 µM [3, 11]: 102%

Compound: CC1=C(O)C(=O)CO1 [4-Hydroxy-5-methyl-3-furanone]
- activation at 1000 µM [1, 4]: 40.5%
- A1V1 activation, % of agonist value [2, 5]: 38%
- activation at 1000 µM [3, 5]: 58%

Compound: CC(=O)C(=O)c1ccccc1 [1-Phenyl-1,2-propanedione]
- activation at 1000 µM [1, 4]: 66.6%
- A1V1 activation, % of agonist value [2, 5]: 105.5%
- A1V1 activation, % of agonist value [2, 12]: 71.4%
- activation at 1000 µM [3, 5]: 98.6%
- activation at 100 µM [3, 12]: 100%

Compound: C=CCc1cccc(OC)c1O [o-Eugenol]
- V1 activation, % of agonist value [1, 4]: 64.5%
- A1V1 activation, % of agonist value [2, 5]: 158.3%
- A1 activation, % of agonist value [3, 5]: 128.4%

Compound: CCOC(=O)C(O)Cc1ccccc1 (centres unmarked) [Ethyl 2-hydroxy-3-phenylpropanoate]
- activation at 1000 µM [1, 4]: 29.2%
- A1V1 activation, % of agonist value [2, 5]: 90.76%
- activation at 1000 µM [3, 5]: 95.6%

Compound: CC1=C(CC=O)C(C)(C)CCC1 [Beta-Cyclohomocitral]
- V1 activation, % of agonist value [1, 4]: 61.74%
- A1V1 activation, % of agonist value [2, 5]: 66.79%
- A1 activation, % of agonist value [3, 5]: 81.44%

Compound: CCCCCC/C=C/C=C/C=O [Trans,trans-2,4-undecadien-1-al]
- activation at 100 µM ([1]; Table 1(b), 100 μM (*), relative to capsaicin 350 nM): 87.5%
- A1V1 activation, % of agonist value [2, 13]: 38.4%
- A1V1 activation, % of agonist value [2, 14]: 85.4%
- activation at 100 µM [3, 13]: 74%
- activation at 1000 µM [3, 14]: 86.4%

Compound: O=C(O)C(=O)Cc1ccccc1 [Phenylpyruvic acid]
- activation at 1000 µM [1, 4]: 32.5%
- A1V1 activation, % of agonist value [2, 5]: 74.05%
- activation at 1000 µM [3, 5]: 68%

Compound: C=Cc1ccc(O)c(OC)c1 [2-Methoxy-4-vinylphenol]
- activation at 1000 µM [1, 4]: 20.7%
- A1V1 activation, % of agonist value [2, 5]: 81.90%
- activation at 1000 µM [3, 5]: 74.8%

Compound: CCCCCC(=Cc1ccccc1)CO [Alpha-Amylcinnamyl alcohol]
- activation at 1000 µM [1, 4]: 21.1%
- A1V1 activation, % of agonist value [2, 5]: 77.36%
- activation at 1000 µM [3, 5]: 96.4%

Compound: CCCCCC1CCC(=O)O1 (centres unmarked) [Gamma-Nonalactone]
- V1 activation, % of agonist value [1, 4]: 66.34%
- A1V1 activation, % of agonist value [2, 5]: 69.15%
- A1 activation, % of agonist value [3, 5]: 33.32%

Compound: CCCCCCC=O [Heptaldehyde]
- activation at 100 µM [1, 8]: 65.3%
- TRPV1 activation selectivity, in words [1]: TRPV1 activators which do not modulate TRPA1 or TRPA1V1
- A1V1 activation, % of agonist value [2, 9]: 2.4%
- activation at 100 µM [3, 10]: 4.3%

Compound: CC/C=C\C/C=C\C/C=C\CCCCCCCC(=O)OC [Methyl linolenate]
- activation at 1000 µM [1, 4]: 31%
- A1V1 activation, % of agonist value [2, 5]: 104%
- activation at 1000 µM [3, 5]: 108%

Compound: O=C1NS(=O)(=O)c2ccccc21 [Saccharin]
- activation at 1000 µM [1]: 80.8%
- A1V1 activation, % of agonist value [2]: 93.25%
- activation at 1000 µM [3]: 92.6%

Compound: Cc1ccc(C)c(O)c1C [2,3,6-Trimethylphenol]
- activation at 1000 µM [1, 4]: 74.8%
- A1V1 activation, % of agonist value [2, 5]: 91.4%
- activation at 1000 µM [3, 5]: 90%

Compound: CCCCC/C=C/CO [Trans-2-Octen-1-ol]
- activation at 1000 µM [1, 4]: 26%
- A1V1 activation, % of agonist value [2, 5]: 103.2%
- activation at 1000 µM [3, 5]: 118%

Compound: Desoxycholic acid
- V1 activation, % of agonist value [1, 8]: 84.4%
- TRPV1 activation selectivity, in words [1]: TRPV1 activators which do not modulate TRPA1 or TRPA1V1
- A1V1 activation, % of agonist value [2, 9]: 2.9%
- A1 activation, % of agonist value [3, 10]: 3.2%

Compound: CCC(C)COC(=O)CC(C)C (centres unmarked) [2-Methylbutyl isovalerate]
- activation at 1000 µM ([1]; Table 1(i), 1 mM, relative to capsaicin 350 nM, […]): 75.3%
- TRPV1 activation selectivity, in words [1]: TRPV1 activators which do not modulate TRPA1 or TRPA1V1
- A1V1 activation, % of agonist value ([2]; Table 1(i), 1 mM, relative to AITC 30 μM or capsaicin 350 nM depending on compound, […]): 2.1%
- activation at 1000 µM ([3]; Table 1(i), 1 mM, relative to AITC 30 μM, […]): 1.7%

Compound: O=C(O)CC1CCCCC1 [Cyclohexaneacetic acid]
- activation at 1000 µM [1, 4]: 56.6%
- A1V1 activation, % of agonist value [2, 5]: 61.28%
- activation at 1000 µM [3, 5]: 20.6%

Compound: CC(=O)/C=C/C=C(\C)CCC=C(C)C [Pseudoionone]
- V1 activation, % of agonist value [1, 4]: 20.76%
- A1V1 activation, % of agonist value [2, 5]: 127.2%
- A1 activation, % of agonist value [3, 5]: 105.5%

Compound: CC1=CC(=O)C(C(C)C)CC1 (centres unmarked) [Piperitone]
- activation at 1000 µM [1, 6]: 53.3%
- A1V1 activation, % of agonist value [2, 7]: 109.1%
- activation at 1000 µM [3, 7]: 90.1%

Compound: S=C=NCc1ccccc1 [Isothiocyanic acid, benzyl ester]
- activation at 1000 µM [1, 4]: 59.2%
- A1V1 activation, % of agonist value [2, 5]: 180.5%
- activation at 1000 µM [3, 5]: 110%

Compound: OCCCc1ccccc1 [3-Phenylpropanol]
- activation at 1000 µM [1, 6]: 32%
- A1V1 activation, % of agonist value [2, 7]: 64.94%
- activation at 1000 µM [3, 7]: 51.4%

Compound: CCCCCC(O)CC(=O)OCC (centres unmarked) [Ethyl 3-hydroxyoctanoate]
- activation at 1000 µM [1, 6]: 28.1%
- A1V1 activation, % of agonist value [2, 7]: 76.90%
- activation at 1000 µM [3, 7]: 97.3%

Compound: CCCCCCCC1CC(C)OC1=O (centres unmarked) [3-Heptyldihydro-5-methylfuran-2(3H)-one]
- activation at 1000 µM [1, 15]: 45.5%
- A1V1 activation, % of agonist value [2, 15]: 40.5%

Compound: CC(C)[C@@H]1CC[C@@H](C)C[C@@H]1O [(+)-Neomenthol]
- V1 activation, % of agonist value [1, 16]: 68.8%
- A1V1 activation, % of agonist value [2, 16]: 44.8%

Compound: c1ccc2[nH]ccc2c1 [Indole]
- activation at 1000 µM [1, 15]: 53.3%
- A1V1 activation, % of agonist value [2, 15]: 42.9%

Compound: O=C([O-])[C@H](O)[C@@H](O)[C@H](O)[C@H](O)CO.[K+] [Gluconic acid, monopotassium salt]
- activation at 1000 µM [1, 16]: 33%
- A1V1 activation, % of agonist value [2, 16]: 14.0%

Compound: Cc1cccc(C)c1O [2,6-Dimethylphenol]
- activation at 1000 µM [1, 16]: 72.1%
- A1V1 activation, % of agonist value [2, 16]: 45.8%
